From ChEMBL document CHEMBL2311267, “Design, synthesis and biological evaluation of glucose-containing scutellarein derivatives as neuroprotective agents based on metabolic mechanism of scutellarin in vivo” (Bioorg Med Chem Lett, 2013)
≈ marks a conversion by molar mass, not a printed value.

Experiments:
[1] = test system: Plasma; experiment: Anticoagulant activity in New Zealand white rabbit platelet-poor plasma assessed as thrombin time at 100 uM; format: functional, Oryctolagus cuniculus
[2] = test system: PC-12; experiment: Neuroprotective activity in rat PC12 cells assessed as inhibition of H2O2-induced cytotoxicity at 25 uM after 3 hrs by MTT assay relative to control; format: functional; conditions: PC-12, 3 h
[3] = test system: Plasma; experiment: Anticoagulant activity in New Zealand white rabbit platelet-poor plasma assessed as fibrinogen content at 100 uM; format: functional, Oryctolagus cuniculus
[4] = test system: Radical scavenging activity; experiment: Antioxidant activity assessed as inhibition of DPPH-radical production; format: functional
[5] = test system: Plasma; experiment: Anticoagulant activity in New Zealand white rabbit platelet-poor plasma assessed as prothrombin time at 100 uM; format: functional, Oryctolagus cuniculus
[6] = Aqueous solubility of the compound by UV-Vis spectrophotometric analysis; format: physicochemical; conditions: water
[7] = test system: Plasma; experiment: Anticoagulant activity in New Zealand white rabbit platelet-poor plasma assessed as activated partial thromboplastin time at 100 uM; format: functional, Oryctolagus cuniculus
[8] = test system: PC-12; experiment: Neuroprotective activity in rat PC12 cells assessed as inhibition of H2O2-induced cytotoxicity at 50 uM after 3 hrs by MTT assay relative to control; format: functional; conditions: PC-12, 3 h

Row | Compound | TT [1] [s] | inhibition at 25 µM [2] [%] | Activity [3] [g/L] | IC50 [4] [µM] | PT [5] [s] | solubility [6] [µM] | APTT [7] [s] | inhibition at 50 µM [8] [%]
1 | O=C(O)[C@H]1O[C@@H](Oc2cc3oc(-c4ccc(O)cc4)cc(=O)c3c(O)c2O)[C@H](O)[C@@H](O)[C@@H]1O [SCUTELLARIN] | 21.35 | 52.6 | 37.96 | 26.8 | 6.91 | 7.53 (≈ 3.48 µg/mL) | 33.06 | 78.8
2 | O=c1cc(-c2ccc(O)cc2)oc2cc(O[C@@H]3O[C@H](CO)[C@@H](O)[C@H](O)[C@@H]3O)c(O)c(O)c12 | 20.54 | 23.5 | 26.68 | 34.9 | 6.57 | 8.19 (≈ 3.67 µg/mL) | 38.2 | 56.4
3 | O=c1cc(-c2ccc(O)cc2)oc2cc(O[C@@H]3O[C@H](CO)[C@H](O)[C@H](O)[C@H]3O)c(O)c(O)c12 | 29.17 | 61 | 20.81 | 28.4 | 9.93 | 8.93 (≈ 4 µg/mL) | 39.62 | 83.3
4 | O=c1cc(-c2ccc(O)cc2)oc2cc(O[C@@H]3O[C@H](CO)[C@@H](O)[C@H](O)[C@H]3O)c(O)c(O)c12 | 18.13 | 65.5 | 32.43 | 25.3 | 7.81 | 7.85 (≈ 3.52 µg/mL) | 43.06 | 79.9
